Tests used:
large crabgrass = assay: Test A pre-/postemergence herbicide test; type: in vivo, Digitaria sanguinalis
Method in brief: (§1)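 Plants are held in greenhouse about ten days after treatment, then compared with untreated controls and scored 0 (no effect) to 100 (complete control). Preemergence dosing is a directed soil spray on sown sandy loam; postemergence dosing is spray to runoff at 2–10 cm height.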

common ragweed = assay: Test C pre-/postemergence herbicide test; type: in vivo, Ambrosia elatior; design: key to Plant response rating, Ragweed: 0 = no effect, 100 = complete control; details: for Ragweed plant response rating: 500 g ai/ha
Method in brief: (§2)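 Greenhouse-grown plants were evaluated visually 12 to 14 days after treatment, with 100 meaning complete control and 0 no effect. Application was preemergence, or postemergence at 2 to 18 cm.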

johnsongrass = assay: Test C pre-/postemergence herbicide test; type: in vivo, Sorghum halepense; details: for Johnsongrass plant response rating: 500 g ai/ha
Method in brief: as §2

Surinam grass = assay: Test C pre-/postemergence herbicide test; type: in vivo, Urochloa decumbens; details: for Surinam Grass plant response rating: 500 g ai/ha
Method in brief: as §2

bermudagrass = assay: Test C pre-/postemergence herbicide test; type: in vivo, Cynodon dactylon
Method in brief: as §2

morningglory [1] = assay: Test C pre-/postemergence herbicide test; type: in vivo, Ipomoea coccinea; design: key to Plant response rating, Morningglory: 0 = no effect, 100 = complete control; details: for Morningglory plant response rating: 500 g ai/ha
Method in brief: as §2

ducksalad = assay: Test C flooded paddy test; type: in vivo, Heteranthera limosa
barnyardgrass = assay: Test C flooded paddy test; type: in vivo, Echinochloa crus-galli
Method in brief: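 Visual rating, 0 (no effect) to 100 (complete control), vs. controls at 12–14 d in greenhouse. Postemergence: 1–4-leaf plants, 2–18 cm. Paddy: flooded, barnyardgrass at 2-leaf stage.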

giant foxtail = assay: Test A pre-/postemergence herbicide test; type: in vivo, Setaria faberi
Method in brief: as §1

goosegrass = assay: Test C pre-/postemergence herbicide test; type: in vivo, Eleusine indica; details: for Goosegrass plant response rating: 500 g ai/ha
Method in brief: as §2

corn = assay: Test C pre-/postemergence herbicide test; type: in vivo, Zea mays; details: for Corn plant response rating: 500 g ai/ha
Method in brief: as §2

morningglory [2] = assay: Test A pre-/postemergence herbicide test; type: in vivo, Ipomoea spp.
Method in brief: as §1

velvetleaf = assay: Test C pre-/postemergence herbicide test; type: in vivo, Abutilon theophrasti; details: for Velvetleaf plant response rating: 500 g ai/ha
Method in brief: as §2

[3] = Postemergence, 500 g ai/ha, 0 to 100 scale, 0 no effect, 100 complete control
[4] = Postemergence, 2000 g ai/ha, 0 to 100 scale, 0 no effect, 100 complete control
[5] = Preemergence, 500 g ai/ha, visual rating, 0 to 100 scale (0 no effect, 100 complete control)
[6] = Preemergence, 2000 g ai/ha, visual rating, 0 to 100 scale (0 no effect, 100 complete control)
[7] = 125 g ai/ha, scale 0 (no effect) to 100 (complete control), visual, 12 to 14 days, preemergence
[8] = Postemergence, 250 g ai/ha, scale 0 to 100, 0 no effect, 100 complete control
[9] = Preemergence, scale 0 to 100, 0 no effect, 100 complete control
[10] = postemergence, 125 g ai/ha, scale 0 to 100
[11] = postemergence, 62 g ai/ha, scale 0 to 100
[12] = 250 g ai/ha, scale 0 to 100 (0 no effect, 100 complete control), visual, 12 to 14 days, preemergence
[13] = 62 g ai/ha, scale 0 to 100 (0 no effect, 100 complete control)
[14] = 250 g ai/ha, scale of 0 to 100, 0 is no effect, 100 is complete control
[15] = 500 g ai/ha, visual rating after 12 to 14 days, scale 0 to 100 (0 no effect, 100 complete control)

CCn1nc(C(C)(C)C)cc1C(=O)Nc1cccc(C(=O)NC2CC2)n1 [Compound 146]
Crabgrass, Large plant response rating (large crabgrass; [3]): 15 | Plant response rating, Crabgrass, Large (large crabgrass; [4]): 55 | Crabgrass, Large plant response rating (large crabgrass; [5]): 70 | Crabgrass, Large plant response rating (large crabgrass; [6]): 80 | Plant response rating (0 = no effect, 100 = complete control), Ragweed (common ragweed; 62 g ai/ha, preemergence): 0 | Plant response rating, Ragweed (common ragweed; [7]): 0 | Ragweed plant response rating (common ragweed; Postemergence, scale 0 to 100): 0 | Plant response rating, Ragweed (common ragweed; [8]): 0 | Ragweed plant response rating (common ragweed; [9]): 70 | Plant response rating, Ragweed (common ragweed; [10]): 0 | Plant response rating, Ragweed (common ragweed; [11]): 0 | Plant response rating, Johnsongrass (johnsongrass; [7]): 30 | Johnsongrass plant response rating (johnsongrass; Postemergence, scale 0 to 100): 0 | Plant response rating, Johnsongrass (johnsongrass; [8]): 0 | Johnsongrass plant response rating (johnsongrass; [9]): 70 | Plant response rating, Johnsongrass (johnsongrass; [10]): 0 | Plant response rating, Johnsongrass (johnsongrass; [11]): 0 | Plant response rating (0 = no effect, 100 = complete control), Surinam Grass (Surinam grass; 62 g ai/ha, preemergence): 0 | Plant response rating, Surinam Grass (Surinam grass; [7]): 0 | Surinam Grass plant response rating (Surinam grass; Postemergence, scale 0 to 100): 20 | Plant response rating, Surinam Grass (Surinam grass; [8]): 0 | Surinam Grass plant response rating (Surinam grass; [9]): 50 | Plant response rating, Surinam Grass (Surinam grass; [10]): 0 | Plant response rating, Surinam Grass (Surinam grass; [11]): 0 | Plant response rating (0 = no effect, 100 = complete control), Bermudagrass (bermudagrass; 62 g ai/ha, preemergence): 10 | Plant response rating, Bermudagrass (bermudagrass; [7]): 60 | Plant response rating, Bermudagrass (bermudagrass; [12]): 70 | Plant response rating, Bermudagrass (bermudagrass; [8]): 0 | Bermudagrass plant response rating (bermudagrass; Preemergence, 500 g ai/ha, scale 0 to 100, 0 no effect, 100 complete control): 90 | Plant response rating (0 = no effect, 100 = complete control), Morningglory (morningglory [1]; 62 g ai/ha, preemergence): 0 | Plant response rating, Morningglory (morningglory [1]; [7]): 5 | Morningglory plant response rating (morningglory [1]; Postemergence, scale 0 to 100): 0 | Plant response rating, Morningglory (morningglory [1]; [8]): 0 | Morningglory plant response rating (morningglory [1]; [9]): 50 | Plant response rating, Morningglory (morningglory [1]; [10]): 0 | Plant response rating, Morningglory (morningglory [1]; [11]): 0 | Ducksalad plant response rating (ducksalad; [13]): 0 | Ducksalad plant response rating (ducksalad; 125 g ai/ha, scale 0 to 100 (0 no effect, 100 complete control)): 0 | Ducksalad plant response rating (ducksalad; [14]): 20 | Plant response rating, Ducksalad (ducksalad; [15]): 20 | Barnyardgrass plant response rating (barnyardgrass; [13]): 0 | Barnyardgrass plant response rating (barnyardgrass; 125 g ai/ha, scale of 0 to 100, 0 is no effect, 100 is complete control): 0 | Barnyardgrass plant response rating (barnyardgrass; [14]): 0 | Plant response rating, Barnyardgrass (barnyardgrass; [15]): 20 | Foxtail, Giant plant response rating (giant foxtail; [3]): 15 | Plant response rating, Foxtail, Giant (giant foxtail; [4]): 40 | Foxtail, Giant plant response rating (giant foxtail; [5]): 45 | Foxtail, Giant plant response rating (giant foxtail; [6]): 45 | Plant response rating (0 = no effect, 100 = complete control), Goosegrass (goosegrass; 62 g ai/ha, preemergence): 0 | Plant response rating, Goosegrass (goosegrass; [7]): 0 | Goosegrass plant response rating (goosegrass; Postemergence, scale 0 to 100): 0 | Plant response rating, Goosegrass (goosegrass; [8]): 0 | Goosegrass plant response rating (goosegrass; [9]): 60 | Plant response rating, Goosegrass (goosegrass; [10]): 0 | Plant response rating, Goosegrass (goosegrass; [11]): 0 | Plant response rating (0 = no effect, 100 = complete control), Corn (corn; 62 g ai/ha, preemergence): 0 | Plant response rating, Corn (corn; [7]): 0 | Plant response rating, Corn (corn; [12]): 10 | Corn plant response rating (corn; Postemergence, scale 0 to 100): 30 | Plant response rating, Corn (corn; [8]): 10 | Corn plant response rating (corn; [9]): 30 | Plant response rating, Corn (corn; [10]): 5 | Plant response rating, Corn (corn; [11]): 5 | Morningglory plant response rating (morningglory [2]; [3]): 5 | Plant response rating, Morningglory (morningglory [2]; [4]): 0 | Morningglory plant response rating (morningglory [2]; [5]): 5 | Morningglory plant response rating (morningglory [2]; [6]): 50 | Plant response rating, Velvetleaf (velvetleaf; [7]): 40 | Velvetleaf plant response rating (velvetleaf; Postemergence, scale 0 to 100): 40 | Plant response rating, Velvetleaf (velvetleaf; [8]): 40 | Velvetleaf plant response rating (velvetleaf; [9]): 100 | Plant response rating, Velvetleaf (velvetleaf; [10]): 35 | Plant response rating, Velvetleaf (velvetleaf; [11]): 30

Reference: patent publication US20060069132A1, “Azolecarboxamide herbicides” (priority 2004, published 2006)
